# Measured values taken from patent US20240114902A1, “COMPOSITIONS AND METHODS FOR DETERRING OVIPOSITION BY FRUIT FLIES” (The United States of America, as represented by The …, priority 2022, published 2024).
# Legend:
# [1] = tested on: Bactrocera dorsalis (OFF); assay: OFF two-choice cage oviposition bioassay on guava juice-infused agar; format: in vivo; design: key to Activity (OFF oviposition group): Negative: “OFF negative” (i.e., oviposition reduced); Neutral: “OFF neutral” (i.e., no effect on oviposition); Positive: “OFF positive” (i.e., oviposition increased); details: for OFF oviposition reduction vs control agar: 20 mg/agar, 3 days; for Activity (OFF oviposition group): individual CFA component
# Description: Evaluation of oviposition deterrence of CFA: OFF oviposition bioassays were conducted using laboratory two-choice cage experiments with guava juice-infused agar as an oviposition substrate. The agar plates were prepared by pouring 30 mL of boiled agar mixture [1000 mL distilled water, 500 mL guava juice (Deans Foods, El Paso, Texas, USA), 10 g agar, 0.6 g methylparaben, 6.7 mL 95% ethanol, and 3 mL acetic acid] into a 30 mL deli plastic cup to gel. The agar was then covered with a lid to avoid desiccation. The two-choice oviposition bioassay was conducted in screened cages using 20 mated OFF females per cage (12-18 day-old; Jang E B et al., 1997, “Attraction of female oriental fruit fly, Bactrocera dorsalis, to volatile semiochemicals from leaves and extracts of a non-host plant, Panax (Polyscias guilfoylei) in laboratory and olfactometer assays,” J. Chem. Ecol. 23:1389-1401) over 3 days. Each cage was provided with a ball of water-saturated cotton, sugar, and protein hydrolysate in separate 30 mL deli cups and two guava juice agar plates-one treated with CFA diluted in hexane and the other treated with the hexane control. The agar plates were surface-treated either with 200 μL of hexane or 200 μL of CFA in one of 4 doses tested (20, 2, 0.2, and 0.02 mg/200 μL of hexane), placed into a fume hood for 10 minutes prior to use in bioassays, and positioned upside-down (i.e., treated side down) on the center of the outside top of the screened cage 17 cm apart from each other (i.e., one each of control and CFA treated), allowing female flies to oviposit on guava juice agar from the bottom through the cage screen. After three days, OFF eggs in the guava agar were gently separated from the agar in water and the number of eggs were individually counted (up to 100 eggs) or estimated volumetrically at 1 mL OFF eggs=20,000 eggs (Stephanie Gayle personal communication). The experiment was replicated six times per treatment. Determination of bioactive oviposition deterrent components from CFA: A series of bioassays was conducted to identify key deterrent components of CFA for OFF using the same two-choice bioassay design described above. […] Ethanol was used as control and for preparing dilutions of C16:0 and C18:0. Hexane was used as control and for dilutions of the other six compounds tested. Based on the outcome of these bioassays, the eight free fatty acid components were assigned to “OFF negative” (i.e., oviposition reduced), “OFF neutral” (i.e., no effect on oviposition), and “OFF positive” (i.e., oviposition increased) compound groups. Using these groupings, four different blends were formulated (indicated in Table 1), composed at the equivalent ratios and concentrations of each component found in CFA (Zhu J J et al., 2018, supra), to determine key bioactive CFA components in terms of oviposition deterrence on OFF. The approach involved testing the bioactivity of the OFF negative-component blend (4c blend) for oviposition deterrence at three different doses (2, 0.2, and 0.02 mg CFA equivalent/agar), first comparing with hexane control, then with CFA at respective equivalent doses. As the 4c blend was not as effective as CFA, a “OFF negative+OFF neutral” component blend (6c blend) was then formulated, and its effect compared with CFA at 2 and 0.2 mg CFA equivalent/agar. Two subtraction blends with one of the two OFF neutral components removed from the 6c blend (5c-i and 5c-ii blends) were formulated and compared with the 6c blend at 2 and 0.2 mg CFA equivalent/agar. The experiment was replicated four to six times per treatment.
# [2] = tested on: non-SWD drosophilids; assay: Field test 2: sentinel raspberries in guava orchard, non-SWD drosophilids; format: in vivo, D. immigrans, D. simulans, D. melanogaster; details: 20 mg CFA or equivalent dose/raspberry, 2 days
# Description: (§1) Field test 2 The oviposition deterrence of the 2c key-component blend and its two individual components against SWD and non-SWD drosophilids was tested under field conditions. This experiment was conducted in a guava orchard (19° 36′33.6″N, 155° 04′ 12.6″W) located near Hilo, Hawaii. To monitor oviposition, four sentinel organic raspberries purchased from a local grocery were placed (receptacles stuffed with cotton) inside a deli cup (600 mL; Placon, Madison, Wisconsin, USA). Each cup had nine 1 cm diameter holes spaced 3 cm apart along the cup's circumference and 8.5 cm from the bottom, which allowed the drosophilids to enter the cup. The four raspberries in each cup were surface-treated with one of five treatments: 1) 2c blend at 20 mg CFA equivalent/200 μL hexane/raspberry, 2) C8:0 at 20 mg CFA equivalent/200 μL hexane/raspberry, 3) C10:0 at 20 mg CFA equivalent/200 μL hexane/raspberry, 4) CFA at 20 mg/200 μL hexane/raspberry, or 5) 200 μL of hexane control/raspberry. The deli-cup traps were hung in guava trees 1.5 m from the ground with at least 10 m spacing between adjacent traps. […] Raspberries were removed from the traps, placed in rearing cups (600 mL deli cup with organdy cap), held in environmental chamber (22.1±1.9° C., 71.7±3.1% RH, 16:8 L:D), and monitored over a 2-week period. All emerged adults were counted and identified as SWD or non-SWD drosophilids. […]
# [3] = tested on: Bactrocera dorsalis; assay: B. dorsalis spatial deterrence, two-choice traps baited with guava juice; format: in vivo; details: tested individually
# Description: In addition to CFA, a series of odd-numbered carbon fatty acids (C9:0 to C17:0) and fatty acid methyl esters were evaluated for the spatial deterrence to B. dorsalis that results in oviposition reduction. Table 3 below lists the fatty acid methyl esters tested for spatial repellency for Bactrocera dorsalis. […] FIG. 16A, FIG. 16C, FIG. 16E, FIG. 16G, FIG. 16I, FIG. 16K, FIG. 16M, FIG. 16O, FIG. 16Q, and FIG. 16S show the mean numbers (±SEM) of mated female B. dorsalis flies captured, and FIG. 16B, FIG. 16D, FIG. 16F, FIG. 16H, FIG. 16J, FIG. 16L, FIG. 16N, FIG. 16P, FIG. 16R, and FIG. 16T show the number of B. dorsalis eggs oviposited in traps baited with guava juice (control) and with guava juice plus one of the coconut fatty acid methyl ester compounds in two-choice bioassays. For each test, different letter on the bar indicate a significant difference by Tukey-Kramer tests at P<0.05, n=4.
# [4] = tested on: Drosophila suzukii (SWD); assay: Field test 2: sentinel raspberries in guava orchard, SWD adults emerged; format: in vivo; details: 20 mg CFA equivalent/raspberry, total over replicates
# Description: as §1
Structure (SMILES),OFF oviposition reduction vs control agar [1],Activity (OFF oviposition group) [1],"OFF oviposition deterrence at lower dose ([1]; individual compound, 2 mg dose)",effect on oviposition from resident (non-SWD) drosophilids [2],effect on female B. dorsalis attraction and oviposition to host fruit odors [3],SWD adults emerging from treated raspberries [4]
"CCCCCCCC(=O)O [C8:0, caprylic acid]",95%,Negative,maintained OFF oviposition deterrence,not effective,significantly reduced,
"CCCCCCCCCC(=O)O [C10:0, capric acid]",92%,Negative,,not effective,,2 SWD
